Laboratory results published in PubChem BioAssay (NCI).
“And” between values parts separate entries of the source, which are not always exact repeats. Equal entries are not always repeated.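 A five-concentration, 48-hour dose response in 96-well plates underlies each endpoint, interpolated linearly between surrounding concentrations. GI50 marks 50% less growth. The concentration for full growth arrest is given as TGI.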 The source made the active and inactive calls. Rule as the data show it: active = GI50 below about 0.43 µM; inactive = the rest.

Columns and labels:
Test in all cases: NCI anticancer screen, dose series, 48 h
HOP-62 NSCLC = system: HOP-62 NSCLC
HT29 colon = system: HT29 colon
MCF7 breast = system: MCF7 breast
HOP-92 NSCLC = system: HOP-92 NSCLC
DMS 114 small cell lung = system: DMS 114 small cell lung
LOX IMVI melanoma = system: LOX IMVI melanoma
OVCAR-4 ovarian = system: OVCAR-4 ovarian
UACC-62 melanoma = system: UACC-62 melanoma
SNB-75 CNS = system: SNB-75 CNS
U251 CNS = system: U251 CNS
HCT-15 colon = system: HCT-15 colon
A549 NSCLC = system: A549 NSCLC
NCI-H23 lung = system: NCI-H23 lung
EKVX NSCLC = system: EKVX NSCLC
OVCAR-3 ovarian = system: OVCAR-3 ovarian
K-562 leukemia = system: K-562 leukemia
RPMI-8226 leukemia = system: RPMI-8226 leukemia
MDA-N = system: MDA-N
CCRF-CEM leukemia = system: CCRF-CEM leukemia
786-0 renal = system: 786-0 renal
PC-3 prostate = system: PC-3 prostate
NCI-H522 lung = system: NCI-H522 lung
COLO 205 colon = system: COLO 205 colon
HCT-116 colon = system: HCT-116 colon
OVCAR-8 ovarian = system: OVCAR-8 ovarian
T-47D breast = system: T-47D breast
SF-539 CNS = system: SF-539 CNS
HCC-2998 colon = system: HCC-2998 colon
IGROV1 ovarian = system: IGROV1 ovarian
MDA-MB-435 = system: MDA-MB-435
SNB-19 CNS = system: SNB-19 CNS
SK-MEL-5 melanoma = system: SK-MEL-5 melanoma
DMS 273 small cell lung = system: DMS 273 small cell lung
TK-10 renal = system: TK-10 renal
UACC-257 melanoma = system: UACC-257 melanoma
SNB-78 CNS = system: SNB-78 CNS
DU-145 prostate = system: DU-145 prostate
MALME-3M melanoma = system: MALME-3M melanoma
SN12C renal = system: SN12C renal
M19-MEL melanoma = system: M19-MEL melanoma
KM20L2 colon = system: KM20L2 colon
ACHN renal = system: ACHN renal
RXF 393 renal = system: RXF 393 renal
OVCAR-5 ovarian = system: OVCAR-5 ovarian
NCI-H460 lung = system: NCI-H460 lung
M14 melanoma = system: M14 melanoma
SF-295 CNS = system: SF-295 CNS
SF-268 CNS = system: SF-268 CNS
NCI-H226 lung = system: NCI-H226 lung
A498 renal = system: A498 renal
MOLT-4 leukemia = system: MOLT-4 leukemia
UO-31 renal = system: UO-31 renal
SK-OV-3 ovarian = system: SK-OV-3 ovarian
HOP-18 NSCLC = system: HOP-18 NSCLC
MDA-MB-231 breast = system: MDA-MB-231 breast
SR leukemia = system: SR leukemia
SW-620 colon = system: SW-620 colon
CAKI-1 renal = system: CAKI-1 renal
HS 578T breast = system: HS 578T breast
KM12 colon = system: KM12 colon
HL-60(TB) leukemia = system: HL-60(TB) leukemia
SK-MEL-2 melanoma = system: SK-MEL-2 melanoma
SK-MEL-28 melanoma = system: SK-MEL-28 melanoma
BT-549 breast = system: BT-549 breast
LXFL 529 NSCLC = system: LXFL 529 NSCLC

COc1cccc2c1C(=O)c1c(O)c3c(c(O)c1C2=O)C[C@@](O)(C(=O)CO)C[C@@H]3OC1CC(N)C(O)C(C)O1 (some centres not stated)
550 nM and 696 nM: TGI (A498 renal)
628 nM [middle of 5 runs]: TGI (MALME-3M melanoma)
8730 nM: TGI (SNB-78 CNS)
13600 nM: TGI (HOP-18 NSCLC)
1.04 µM [middle of 4 runs]: TGI (RXF 393 renal)
2450 nM: TGI (DMS 273 small cell lung)
1.7 µM [middle of 4 runs]: TGI (SK-MEL-28 melanoma)
1110 nM and 1880 nM and 1410 nM: TGI (MDA-N)
1.87 µM [middle of 4 runs]: TGI (MDA-MB-435)
974 nM: TGI (M19-MEL melanoma)
active: GI50 (HOP-62 NSCLC) 145 nM | GI50 (HOP-92 NSCLC) 306 nM | GI50 (LOX IMVI melanoma) 39.2 nM and 91.7 nM | GI50 (UACC-62 melanoma) 149 nM | GI50 (SNB-75 CNS) 245 nM | GI50 (A549 NSCLC) 109 nM and 60.9 nM and 106 nM | GI50 (K-562 leukemia) 218 nM | GI50 (NCI-H522 lung) 193 nM | GI50 (SF-539 CNS) 191 nM | GI50 (IGROV1 ovarian) 272 nM | GI50 (DU-145 prostate) 169 nM [middle of 4 runs] | GI50 (MALME-3M melanoma) 136 nM | GI50 (ACHN renal) 105 nM and 81 nM and 176 nM | GI50 (RXF 393 renal) 402 nM | GI50 (SF-295 CNS) 210 nM | GI50 (SF-268 CNS) 219 nM | GI50 (A498 renal) 81.4 nM and 195 nM | GI50 (MOLT-4 leukemia) < 22.1 nM | GI50 (HS 578T breast) < 10 nM
591 nM: TGI (DMS 114 small cell lung)
inactive: outcome (HOP-62 NSCLC) | outcome (HT29 colon) | outcome (MCF7 breast) | outcome (HOP-92 NSCLC) | outcome (OVCAR-4 ovarian) | outcome (UACC-62 melanoma) | outcome (SNB-75 CNS) | outcome (U251 CNS) | GI50 (HCT-15 colon) 3880 nM | outcome (HCT-15 colon) | outcome (A549 NSCLC) | outcome (NCI-H23 lung) | outcome (EKVX NSCLC) | outcome (OVCAR-3 ovarian) | outcome (K-562 leukemia) | outcome (RPMI-8226 leukemia) | outcome (MDA-N) | outcome (CCRF-CEM leukemia) | outcome (786-0 renal) | outcome (PC-3 prostate) | outcome (NCI-H522 lung) | GI50 (COLO 205 colon) 498 nM | outcome (COLO 205 colon) | outcome (HCT-116 colon) | outcome (OVCAR-8 ovarian) | outcome (T-47D breast) | outcome (SF-539 CNS) | outcome (HCC-2998 colon) | outcome (IGROV1 ovarian) | GI50 (MDA-MB-435) 607 nM | outcome (MDA-MB-435) | outcome (SNB-19 CNS) | outcome (SK-MEL-5 melanoma) | outcome (TK-10 renal) | outcome (UACC-257 melanoma) | outcome (DU-145 prostate) | outcome (MALME-3M melanoma) | outcome (SN12C renal) | outcome (ACHN renal) | outcome (RXF 393 renal) | outcome (OVCAR-5 ovarian) | outcome (NCI-H460 lung) | GI50 (M14 melanoma) 432 nM | outcome (M14 melanoma) | outcome (SF-295 CNS) | outcome (SF-268 CNS) | outcome (NCI-H226 lung) | outcome (A498 renal) | outcome (MOLT-4 leukemia) | GI50 (UO-31 renal) 1850 nM | outcome (UO-31 renal) | outcome (SK-OV-3 ovarian) | GI50 (MDA-MB-231 breast) 949 nM | outcome (MDA-MB-231 breast) | outcome (SR leukemia) | outcome (SW-620 colon) | outcome (CAKI-1 renal) | outcome (HS 578T breast) | outcome (KM12 colon) | outcome (HL-60(TB) leukemia) | outcome (SK-MEL-2 melanoma) | GI50 (SK-MEL-28 melanoma) 593 nM | outcome (SK-MEL-28 melanoma) | outcome (BT-549 breast)
15900 nM: TGI (KM20L2 colon)
340 nM [middle of 5 runs]: TGI (SK-MEL-5 melanoma)
4.83 µM [middle of 4 runs]: TGI (MDA-MB-231 breast)
5.37 µM [middle of 4 runs]: TGI (OVCAR-5 ovarian)
5.19 µM [middle of 4 runs]: TGI (OVCAR-4 ovarian)

CCNC(=S)NNC(=O)c1nsc2ccccc12
> 100000 nM: TGI (HOP-62 NSCLC) | TGI (HT29 colon) | TGI (HOP-92 NSCLC) | TGI (DMS 114 small cell lung) | TGI (LOX IMVI melanoma) | TGI (OVCAR-4 ovarian) | TGI (UACC-62 melanoma) | TGI (SNB-75 CNS) | TGI (U251 CNS) | TGI (HCT-15 colon) | TGI (A549 NSCLC) | TGI (NCI-H23 lung) | TGI (EKVX NSCLC) | TGI (OVCAR-3 ovarian) | TGI (K-562 leukemia) | TGI (RPMI-8226 leukemia) | TGI (CCRF-CEM leukemia) | TGI (COLO 205 colon) | TGI (HCT-116 colon) | TGI (OVCAR-8 ovarian) | TGI (SF-539 CNS) | TGI (HCC-2998 colon) | TGI (IGROV1 ovarian) | TGI (SNB-19 CNS) | TGI (SK-MEL-5 melanoma) | TGI (DMS 273 small cell lung) | TGI (TK-10 renal) | TGI (UACC-257 melanoma) | TGI (SNB-78 CNS) | TGI (SN12C renal) | TGI (M19-MEL melanoma) | TGI (KM20L2 colon) | TGI (LXFL 529 NSCLC) | TGI (ACHN renal) | TGI (RXF 393 renal) | TGI (OVCAR-5 ovarian) | TGI (NCI-H460 lung) | TGI (M14 melanoma) | TGI (SF-268 CNS) | TGI (MOLT-4 leukemia) | TGI (UO-31 renal) | TGI (HOP-18 NSCLC) | TGI (SR leukemia) | TGI (SW-620 colon) | TGI (KM12 colon) | TGI (HL-60(TB) leukemia) | TGI (SK-MEL-2 melanoma) | TGI (SK-MEL-28 melanoma)
